Consider 1 compound from publication PMC12679610, “Impact of supersaturation on growth, critical radius, and size in neomycin nanoparticle crystallization using anti-solvent and CTAB” (RSC Advances, 2025).

The nature of data set [1]: Solubility of neomycin sulfate in water-acetone in the presence of CTAB. In kind it is physicochemical. As to the method:
In this section, the method for the synthesis of neomycin nanoparticles is explained in detail. First, an exact amount of neomycin powder (purity ≥ 95%) was weighed using a digital analytical balance (accuracy: […]) based on the desired equilibrium concentration. The weighed neomycin was then added to 10 g of double-distilled water (25 °C). To ensure complete dissolution, the mixture was homogenized using a magnetic stirrer at controlled speeds of 300, 350, 400, and 450 rpm for 20 minutes. This range of stirring speeds was selected to investigate the effect of shear force on solution homogeneity. After confirming the homogeneity of the neomycin solution, a predetermined amount of CTAB surfactant with a concentration established from prior studies was added to the beaker. To achieve optimal mixing, the stirring system was activated at a constant speed between 300 and 450 rpm, and the mixing process continued until equilibrium was reached. The solution temperature was continuously monitored using a calibrated digital thermometer (±0.1 °C). A turbidity sensor was installed 2 cm from the crystallizer wall to measure changes in turbidity. Pure acetone (HPLC grade) was added dropwise (0.02 mL per drop) at 5-minute intervals. The first signs of physical change (e.g., localized cloudiness) were recorded as the initial saturation point. Acetone addition continued until stable turbidity (supersaturation) was achieved under isothermal conditions (25 °C). The induction time (the interval between initial saturation and supersaturation), as clearly depicted in Fig. 1, Section C (the induction time segment of steps 1 to 4), was measure using a synchronized turbidimeter and reaction timer data. To ensure reproducibility, the entire process was repeated in four independent trials under controlled conditions (constant temperature, humidity, and lighting).
This study investigated the solubility enhancement of neomycin in the presence of CTAB stabilizer through controlled dynamic shock application. In contrast to the reference study,[29] which utilized PVP at a mixing speed of 300 rpm, the present experimental design involved the addition of 0.3 g neomycin to a 10 g solvent–antisolvent mixture under 350 rpm agitation, incorporating intermittent dynamic shocks consisting of 3-second pulses at 380 rpm. […] This significant improvement stems from synergistic effects between: (1) CTAB's molecular interactions (ionic complexation with neomycin molecules, surface tension reduction, and stable colloidal environment through spherical micelle formation) and (2) dynamic shock-induced phenomena (enhanced antisolvent penetration and uniform stabilizer distribution).[73] […] The findings underscore the critical importance of concurrent optimization of physicochemical parameters in antisolvent crystallization processes for pharmaceutical nanoparticles.[74]
This study comprehensively investigated the influence of CTAB surfactant on neomycin crystallization. […] The supersaturation (S), as the primary driving force, directly affects the induction time, critical radius, growth rate, solubility, nanoparticle size, and nucleation mechanism.[33] CTAB operates through selective adsorption on crystalline surfaces, substantially influencing the nucleation pathway.[75,76] […] Quantitative data for these parameters are presented in Table 2, with the growth rate (intensity %) and nanoparticle size data being experimentally derived from DLS analysis.

On the set-up of data set [2]: method as in PMID 40028493. The conditions noted are these: PVP as stabilizer, cited from earlier work.
Data set [3] in a line: Interfacial energy from ln tind versus 1/T^3(ln S)^2 plot. Type of data set: physicochemical. As to conditions: CTAB 0.6 g kg^−1, 25 °C. As to the method:
Interfacial energy at the solid–liquid interface, can typically be regarded as an intrinsic property of the system.[100] It is indeed a key parameter strongly influenced by the solvent composition and the presence of surfactants such as CTAB.[29,101] In this study, the effect of CTAB at a constant concentration of 0.6 g kg^−1 on the interfacial energy of the crystallization system of neomycin at various concentrations (20, 30, 40, and 50 g kg^−1) was investigated at a temperature of 25 °C. Key system parameters included the density of neomycin (ρ = 640 kg m^−3), measured using the volume displacement method; the shape factor (f = 0.058)[16,29] and the molar mass (M = 908.88 g mol^−1). […] At various concentrations of neomycin (20, 30, 40, and 50 g kg^−1), a comparison was made between the system stabilized with CTAB and previous studies that utilized PVP as a stabilizer.[29] […] This distinction can be attributed to a significant reduction in surface energy in the presence of CTAB, as well as distinct molecular interactions between neomycin and the cationic surfactant, which subsequently influenced solubility and nucleation behavior.[102] […] The proposed mechanism for this observation includes the effective adsorption of CTAB onto nanoparticle surfaces, alterations in the local solubility of neomycin, and the formation of stable electrical double layers at the interface.[103] Furthermore, increased agitation enhanced mass transfer, improved surfactant distribution, and promoted the formation of stable nuclei, ultimately leading to a significant reduction in surface energy and effective suppression of nanoparticle aggregation.[104]

Where [4] appears, read: initial neomycin 20 g kg solvent^−1.
[5] abbreviates: initial neomycin 30 g kg solvent^−1.

Read-outs that look alike come from different tables or passages of the source.

For the compound `NC[C@@H]1O[C@H](O[C@H]2[C@@H](O)[C@H](O[C@@H]3[C@@H](O)[C@H](N)C[C@H](N)[C@H]3O[C@H]3O[C@H](CN)[C@@H](O)[C@H](O)[C@H]3N)O[C@@H]2CO)[C@H](N)[C@@H](O)[C@@H]1O.O=S(=O)(O)O` [neomycin sulfate], the Solubility in data set [1] (300 rpm, initial neomycin 20 g kg^−1, S 1.18, CTAB 0.6 g kg^−1, 25 °C) was determined as 17 g/kg; in data set [1] (300 rpm, initial neomycin 20 g kg^−1, S 1.21, CTAB 0.6 g kg^−1, 25 °C) it was 16 g/kg; in data set [1] (300 rpm, initial neomycin 20 g kg^−1, S 1.33, CTAB 0.6 g kg^−1, 25 °C), 15 g/kg; in data set [1] (300 rpm, initial neomycin 20 g kg^−1, S 1.45, CTAB 0.6 g kg^−1, 25 °C) it was 13.8 g/kg; in data set [1] (300 rpm, initial neomycin 20 g kg^−1, S 1.66, CTAB 0.6 g kg^−1, 25 °C), 12 g/kg; in data set [1] (350 rpm, initial neomycin 30 g kg^−1, S 1.2, CTAB 0.6 g kg^−1, 25 °C), 25 g/kg. Moreover, the Solubility in data set [1] (350 rpm, initial neomycin 30 g kg^−1, S 1.25, CTAB 0.6 g kg^−1, 25 °C) came out at 24 g/kg; in data set [1] (350 rpm, initial neomycin 30 g kg^−1, S 1.28, CTAB 0.6 g kg^−1, 25 °C), 23.5 g/kg; in data set [1] (350 rpm, initial neomycin 30 g kg^−1, S 1.43, CTAB 0.6 g kg^−1, 25 °C), 21.1 g/kg; in data set [1] (400 rpm, initial neomycin 40 g kg^−1, S 1.29, CTAB 0.6 g kg^−1, 25 °C), 31 g/kg; in data set [1] (400 rpm, initial neomycin 40 g kg^−1, S 1.379, CTAB 0.6 g kg^−1, 25 °C) it was 29 g/kg; in data set [1] (400 rpm, initial neomycin 40 g kg^−1, S 1.48, CTAB 0.6 g kg^−1, 25 °C) it was 27 g/kg. For the same compound, the Solubility in data set [1] (400 rpm, initial neomycin 40 g kg^−1, S 1.66, CTAB 0.6 g kg^−1, 25 °C) is 24 g/kg; in data set [1] (400 rpm, initial neomycin 40 g kg^−1, S 1.9, CTAB 0.6 g kg^−1, 25 °C), 21 g/kg; in data set [1] (450 rpm, initial neomycin 50 g kg^−1, S 1.351, CTAB 0.6 g kg^−1, 25 °C) it was 37 g/kg; in data set [1] (450 rpm, initial neomycin 50 g kg^−1, S 1.47, CTAB 0.6 g kg^−1, 25 °C), 34 g/kg; in data set [1] (450 rpm, initial neomycin 50 g kg^−1, S 1.666, CTAB 0.6 g kg^−1, 25 °C) it was 30 g/kg; in data set [1] (450 rpm, initial neomycin 50 g kg^−1, S 1.785, CTAB 0.6 g kg^−1, 25 °C), 28 g/kg. For the same compound, the entries for the “Interfacial energy, Motahari et al.” value in data set [2] (setting [4]) and in data set [2] (setting [5]) were 7.68 mJ m^−2 and 8.056 mJ m^−2, respectively. Further, the “Interfacial energy this work” value in data set [3] (setting [4]) amounted to 1.33 mJ m^−2; in data set [3] (setting [5]) it was 1.41 mJ m^−2; in data set [3] (initial neomycin 40 g kg solvent^−1), 1.9 mJ m^−2; in data set [3] (initial neomycin 50 g kg solvent^−1) it was 2.14 mJ m^−2.
